Test results from PubChem BioAssay AID602132 (Sanford-Burnham Center for Chemical Genomics, 2011).
The source made the active and inactive calls. The rule behind the calls is not given here.

The molecules below were run against glucose-6-phosphate dehydrogenase-6-phosphogluconolactonase [Plasmodium falciparum 3D7] (assay: inhibition of P. falciparum G6PD activity – biochemical, direct NADPH end-point detection, set 2, orthogonal assay for PfG6PD antimalarial inhibitor project, SAR follow-up (AID 602132)). Conditions: recombinant PfG6PD.

IC50 | SMILES
> 80 µM (inactive) | CCN1CCCC1CNC(=O)c1ccc2c(c1)NC(=O)/C(=C/c1c(F)cccc1F)S2 (stereo unspecified)
> 80 µM (inactive) | O=C(NCCNC1CCCCC1)c1ccc2c(c1)NC(=O)c1ccccc1S2
> 80 µM (inactive) | CCN1CCCC1CNC(=O)c1ccc2c(c1)NC(=O)/C(=C/c1cccc(F)c1)S2 (stereo unspecified)
> 80 µM (inactive) | CCC(C)N1CCCC1CNC(=O)c1ccc2c(c1)NC(=O)c1ccccc1S2 (stereo unspecified)
> 80 µM (inactive) | CC(C)(C)OC(=O)N1CCCC1CNC(=O)c1ccc2c(c1)NC(=O)/C(=C/c1ccccc1F)S2 (stereo unspecified)
> 80 µM (inactive) | CN(C)c1ccccc1CNC(=O)c1ccc2c(c1)NC(=O)/C(=C/c1ccccc1F)S2
> 80 µM (inactive) | O=C1Nc2cc(C(=O)NCC3CCCN3)ccc2S/C1=C\c1ccccc1F (stereo unspecified)
> 80 µM (inactive) | CCN1CCCC1CNC(=O)c1ccc2c(c1)NC(=O)/C(=C/c1ccc(F)cc1)S2 (stereo unspecified)
> 80 µM (inactive) | NC1CCN(C(=O)c2ccc3c(c2)NC(=O)c2ccccc2S3)C1 (stereo unspecified)
6.69 µM | CCN1CCC[C@@H]1CNC(=O)c1ccc2c(c1)NC(=O)c1ccccc1S2
25 µM | CCC(C)N(CCNC(=O)c1ccc2c(c1)NC(=O)c1ccccc1S2)C1CCCCC1 (stereo unspecified)
> 80 µM (inactive) | CCN1CCCC1CNC(=O)c1ccc2c(c1)NC(=O)C(Cc1ccccc1F)S2 (stereo unspecified)
> 80 µM (inactive) | O=C(NCCN1CCOCC1)c1ccc2c(c1)NC(=O)c1ccccc1S2
> 80 µM (inactive) | CCN(CC)CCCC(C)Nc1ccnc2cc(Cl)ccc12 (stereo unspecified)
25.4 µM | O=C(NCCN1CCCCC1)c1ccc2c(c1)NC(=O)c1ccccc1S2
> 80 µM (inactive) | NCCNC(=O)c1ccc2c(c1)NC(=O)c1ccccc1S2
> 80 µM (inactive) | NC1CCN(C(=O)c2ccc3c(c2)NC(=O)/C(=C/c2ccccc2F)S3)C1 (stereo unspecified)
> 80 µM (inactive) | CCN1CCCC1CNC(=O)c1ccc2c(c1)NC(=O)/C(=C/c1ccc3ccccc3c1)S2 (stereo unspecified)
> 80 µM (inactive) | CCN1CCCC1CNC(=O)c1ccc2c(c1)NC(=O)/C(=C/c1cccc(F)c1F)S2 (stereo unspecified)
> 80 µM (inactive) | CCCN1CCCC1CNC(=O)c1ccc2c(c1)NC(=O)/C(=C/c1ccccc1F)S2 (stereo unspecified)
64.8 µM | CCN1CCC[C@H]1CNC(=O)c1ccc2c(c1)NC(=O)c1ccccc1S2
